Test results: ChEMBL document CHEMBL1132003, “2-chloro-3-substituted-1,4-naphthoquinone inactivators of human cytomegalovirus protease” (Bioorg Med Chem Lett, 1999)
One block for each compound: values may come before it.

What was measured:
[1] = test system: HCMV protease (assemblin, Human betaherpesvirus 5); experiment: Inhibitory activity against HCMV protease by SPA assay at 150 uM concentration
MRC5 [2] = experiment: Inhibitory activity against HCMV in a plaque assay(strain in MRC-5 cells); format: functional, cell-based; conditions: Homo sapiens
Neutrophil elastase = biological target: T1, Neutrophil elastase (Homo sapiens, UniProt P08246); experiment: Inhibitory activity against human Elastase […]
T1 sequence (P08246 whole entry): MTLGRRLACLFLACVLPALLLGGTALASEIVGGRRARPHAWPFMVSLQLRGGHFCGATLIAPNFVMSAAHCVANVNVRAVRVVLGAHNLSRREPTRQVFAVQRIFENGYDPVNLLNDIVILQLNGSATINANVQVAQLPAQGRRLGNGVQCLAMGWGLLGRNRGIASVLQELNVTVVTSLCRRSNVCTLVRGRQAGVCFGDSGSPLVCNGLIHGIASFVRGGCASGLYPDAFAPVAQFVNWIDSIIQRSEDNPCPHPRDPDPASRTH

MRC5 [3] = experiment: Inhibitory activity against HCMV protease in a plaque assay (strain AD169 in MRC-5 cells); format: functional, cell-based; conditions: Homo sapiens

inhibition [1]: 11%
Structure (SMILES): CC1(C)CC(=O)C(C2=C(O)C(=O)c3ccccc3C2=O)C(=O)C1

Structure (SMILES): CC(=O)C(C(=O)OC(C)C)C1=C(Cl)C(=O)c2ccccc2C1=O (centres undefined)
IC50 (MRC5 [2]): 13 µM

IC50 (Neutrophil elastase): 30 µM
Structure (SMILES): CC(=O)C(C(=O)OCc1ccccc1)C1=C(Cl)C(=O)c2ccccc2C1=O (centres undefined)

Structure (SMILES): CCOC(=O)C(C(C)=O)C1=C(Cl)C(=O)c2ccccc2C1=O (centres undefined)
IC50 (MRC5 [3]): 10 µM
